# Measured values: US7939548B2, “Certain chemical entities, compositions, and methods” (Cytokinetics, Inc., priority 2006, dated 2011)
# Target: T1, chicken gizzard smooth muscle myosin subfragment-1 chemically crosslinked to either cardiac or skeletal actin (Gallus gallus, UniProt P10587)
# T1 construct: chicken gizzard smooth muscle myosin subfragment-1
# Assay: Smooth muscle myosin ATPase dose response assay (pyruvate kinase/horseradish peroxidase/pyruvate oxidase-coupled)
# Assay type: biochemical
# Details: ATPase activity of crosslinked smooth muscle actomyosin (subfragment-1); amplex red fluorescence; 4 parameter fit; read-out: IC50 Arithmetic Mean
# Description: Screening assays were performed using a pyruvate kinase and lactate dehydrogenase-coupled ATPase assay containing the following reagents: Potassium PIPES (50 mM), MgCl2 (3 mM), KCl (100 mM), ATP (0.15 mM), DTT (1 mM), BSA (0.1 mg/ml), NADH (0.5 mM), PEP (1.5 mM), pyruvate kinase (4 U/ml), lactate dehydrogenase (8 U/ml), and antifoam (50 ppm) (concentrations expressed are final assay concentrations). The pH was adjusted to 6.80 at 22 °C by addition of potassium hydroxide. Lead optimization assays were performed with a more sensitive pyruvate kinase/horseradish peroxidase/pyruvate oxidase-coupled ATPase assay containing the following reagents: Potassium PIPES (12 mM), MgCl2 (2 mM), KCl (100 mM), ATP (0.15 mM), BSA (0.05 mg/ml), potassium phosphate (2 mM), amplex red (0.1 mM), PEP (0.1 mM), pyruvate kinase (4 U/ml), horseradish peroxidase (0.5 U/ml), pyruvate oxidase (0.5 U/ml), and antifoam (50 ppm) (concentrations expressed are final assay concentrations). The pH was adjusted to 7.00 at 22 °C by addition of potassium hydroxide.
# The protein components specific to this assay are chicken gizzard smooth muscle myosin subfragment-1 that has been chemically crosslinked to either cardiac or skeletal actin using an excess of 1-Ethyl-3-[3-dimethylaminopropyl]carbodiimide hydrochloride and N-hydroxysuccinimide. The exact concentration of the crosslinked smooth muscle myosin in the assay is determined empirically, by titration to achieve a desired rate of ATP hydrolysis. The concentration varies between protein preparations due to variations in the fraction of active molecules in each preparation.
# Compound dose response assays are performed by first preparing a dilution series of test compound, each with an assay mixture containing potassium PIPES, MgCl2, KCl, ATP, BSA, potassium phosphate, amplex red, PEP, crosslinked smooth muscle actomyosin (subfragment-1), antifoam, and water. The assay is started by adding an equal volume of solution containing potassium Pipes, MgCl2, KCl, BSA, potassium phosphate, pyruvate kinase, horseradish peroxidase, pyruvate oxidase, antifoam, and water. ATP hydrolysis is monitored by measuring the fluorescence of amplex red (excitation at 480 nm, emission at 615 nm). The resulting dose response curve is fit by the 4 parameter equation y=Bottom+((Top-Bottom)/(1+((IC50/X)^Hill))). The IC50 is defined as the concentration at which ATPase activity is midway between the top and bottom of the dose response curve.
row,IC50 [µM],Structure (SMILES)
1,2.65,CCOC(=O)c1ccc(C(=O)NCc2cccnc2)c(NCCc2cccc(F)c2)n1 [ethyl 6-{[2-(3-fluorophenyl)ethyl]amino}-5-[N-(3-pyridylmethyl)carbamoyl]pyridine-2-carboxylate]
2,14.9,COC(=O)c1cc(C#N)cnc1NCCc1cccc(F)c1 [methyl 5-cyano-2-{[2-(3-fluorophenyl)ethyl]amino}pyridine-3-carboxylate]
3,44.3,COC(=O)c1ccc(NCCCCC(N)=O)nc1NCCc1cccc(F)c1 [methyl 6-[(4-carbamoylbutyl)amino]-2-{[2-(3-fluorophenyl)ethyl]amino}pyridine-3-carboxylate]
4,4.35,COC(=O)c1ccc(C(=O)NCc2cccnc2)c(NCCc2cccc(F)c2)n1 [methyl 6-{[2-(3-fluorophenyl)ethyl]amino}-5-[N-(3-pyridylmethyl)carbamoyl]pyridine-2-carboxylate]
5,3.45,COC(=O)/C=C(\C)c1ccc(C(=O)NCc2cccnc2)c(NCCc2cccc(F)c2)n1 [methyl (2E)-3-(6-{[2-(3-fluorophenyl)ethyl]amino}-5-[N-(3-pyridylmethyl)carbamoyl](2-pyridyl))but-2-enoate]
